System: HCV genotype-1a variant with glutamine 30 changed to glutamate in the NS5A protein
Type: cell-based
Details: test compound titrated with BMS-790052 fixed at 200 nM; genotype 1a Q30E replicon
Description: The NS5A synergistic inhibitory effect of test compounds can be determined using various amounts of an NS5A-targeting compound with titration of a second compound of interest. […] In one embodiment, the HCV genotype strain can be genotype 1a containing a change at amino acid 30 of the NS5A protein consisting of glutamine to glutamate. The test compound can be chosen from compounds listed above or from others present in the literature.

| SMILES | Fold-Synergistic 1a (Q30E) [fold] |
| --- | --- |
| CC1(C(=O)NC(c2nc(-c3ccc(-c4ccc(-c5c[nH]c(C(NC(=O)C6(C)CCCO6)C(C)(C)C)n5)cc4)cc3)c[nH]2)C(C)(C)C)CCCO1.O=C(O)C(F)(F)F.O=C(O)C(F)(F)F (mixture of isomers) [Compound L-69] | >100 |
| CC(C)(C)C(NC(=O)CC1CCCO1)c1nc(-c2ccc(-c3ccc(-c4c[nH]c(C(NC(=O)CC5CCCO5)C(C)(C)C)n4)cc3)cc2)c[nH]1.O=C(O)C(F)(F)F.O=C(O)C(F)(F)F (mixture of isomers) [Compound L-70] | >100 |
| CC(C)(C)C(NC(=O)CC1CCOC2(CC2)C1)c1nc(-c2ccc(-c3ccc(-c4c[nH]c(C(NC(=O)CC5CCOC6(CC6)C5)C(C)(C)C)n4)cc3)cc2)c[nH]1 (mixture of isomers) [Compound L-75] | >100 |
| Cn1cccc1C(O)C(C)(C)C(=O)N[C@H](c1nc(-c2ccc(-c3ccc(-c4c[nH]c([C@@H](NC(=O)C(C)(C)C(O)c5cccn5C)C(C)(C)C)n4)cc3)cc2)c[nH]1)C(C)(C)C (mixture of isomers) [Compound N-129] | >100 |
| CC(CO)(CF)C(=O)NC(c1nc(-c2ccc(-c3ccc(-c4c[nH]c(C(NC(=O)C(C)(CO)CF)C(C)(C)C)n4)cc3)cc2)c[nH]1)C(C)(C)C (mixture of isomers) [Compound N-138] | >100 |
| CC(C)(C)C(NC(=O)C(C)(C)C(O)C1CC1)c1nc(-c2ccc(-c3ccc(-c4c[nH]c(C(NC(=O)C(C)(C)C(O)C5CC5)C(C)(C)C)n4)cc3)cc2)c[nH]1 (mixture of isomers) [Compound N-148] | >100 |
| CC(C)C(NC(=O)C(C)(C)C(O)C1CC1)c1nc(-c2ccc(-c3ccc(-c4c[nH]c(C(NC(=O)C(C)(C)C(O)C5CC5)C(C)C)n4)cc3)cc2)c[nH]1 (mixture of isomers) [Compound N-149] | >100 |
| CC1(C(NC(=O)C(C)(C)C(O)C2CC2)c2nc(-c3ccc(-c4ccc(-c5c[nH]c(C(NC(=O)C(C)(C)C(O)C6CC6)C6(C)CC6)n5)cc4)cc3)c[nH]2)CC1 (mixture of isomers) [Compound N-150] | >100 |
| CC1(C(NC(=O)C(C)(C)C(O)C2(C)CC2)c2nc(-c3ccc(-c4ccc(-c5c[nH]c(C(NC(=O)C(C)(C)C(O)C6(C)CC6)C6(C)CC6)n5)cc4)cc3)c[nH]2)CC1 (mixture of isomers) [Compound N-156] | >100 |
| CC1(C(NC(=O)C(C)(C)C(O)C2CC(F)(F)C2)c2nc(-c3ccc(-c4ccc(-c5c[nH]c(C(NC(=O)C(C)(C)C(O)C6CC(F)(F)C6)C6(C)CC6)n5)cc4)cc3)c[nH]2)CC1 (mixture of isomers) [Compound N-157] | >100 |
| COC1(C(=O)NC(c2nc(-c3ccc(-c4ccc(-c5c[nH]c(C(NC(=O)C6(OC)CCOC6)C(C)(C)C)n5)cc4)cc3)c[nH]2)C(C)(C)C)CCOC1 (mixture of isomers) [Compound N-158] | >100 |
| COC1(C(=O)NC(c2nc(-c3ccc(-c4ccc(-c5c[nH]c(C(NC(=O)C6(OC)CCOC6)C(C)C)n5)cc4)cc3)c[nH]2)C(C)C)CCOC1 (mixture of isomers) [Compound N-159] | >100 |
| CC(C)(C)C(NC(=O)C(C)(C)C1CCCCO1)c1nc(-c2ccc(-c3ccc(-c4c[nH]c(C(NC(=O)C(C)(C)C5CCCCO5)C(C)(C)C)n4)cc3)cc2)c[nH]1 (mixture of isomers) [Compound P-153] | >100 |
| CC(C)(C)C(NC(=O)C(C)(C)C1CCC(F)(F)CO1)c1nc(-c2ccc(-c3ccc(-c4c[nH]c(C(NC(=O)C(C)(C)C5CCC(F)(F)CO5)C(C)(C)C)n4)cc3)cc2)c[nH]1 (mixture of isomers) [Compound P-155] | >100 |
| CC(C)(C)C(NC(=O)C1CC(=O)c2ccccc2C1)c1nc(-c2ccc(-c3ccc(-c4c[nH]c(C(NC(=O)C5CC(=O)c6ccccc6C5)C(C)(C)C)n4)cc3)cc2)c[nH]1 (mixture of isomers) [Compound S-256] | >100 |
| CC(C)(C)C(NC(=O)C1CC(=O)c2ccccc21)c1nc(-c2ccc(-c3ccc(-c4c[nH]c(C(NC(=O)C5CC(=O)c6ccccc65)C(C)(C)C)n4)cc3)cc2)c[nH]1 (mixture of isomers) [Compound S-257] | >10 |
| Cc1ccccc1C(C(=O)NC(c1nc(-c2ccc(-c3ccc(-c4c[nH]c(C(NC(=O)C(c5ccccc5C)C(C)C)C(C)(C)C)n4)cc3)cc2)c[nH]1)C(C)(C)C)C(C)C (mixture of isomers) [Compound S-258] | >100 |
| COc1ccccc1C1OC(=O)CC1C(=O)NC(c1nc(-c2ccc(-c3ccc(-c4c[nH]c(C(NC(=O)C5CC(=O)OC5c5ccccc5OC)C(C)(C)C)n4)cc3)cc2)c[nH]1)C(C)(C)C (mixture of isomers) [Compound S-263] | >10 |

| SMILES | Fold-Synergistic 1a (Q30E) [fold] |
| --- | --- |
| CC(C)(C)C(NC(=O)C1CC(=O)N(c2ccccc2O)C1)c1nc(-c2ccc(-c3ccc(-c4c[nH]c(C(NC(=O)C5CC(=O)N(c6ccccc6O)C5)C(C)(C)C)n4)cc3)cc2)c[nH]1 (mixture of isomers) [Compound S-265] | >100 |
| CC(C)(C)OC(=O)NC1CCCC(C(=O)NC(c2nc(-c3ccc(-c4ccc(-c5c[nH]c(C(NC(=O)C6CCCC(NC(=O)OC(C)(C)C)C6)C(C)(C)C)n5)cc4)cc3)c[nH]2)C(C)(C)C)C1 (mixture of isomers) [Compound S-266] | >100 |
| CC(C)(C)C(NC(=O)C1CCCCC1c1ccccc1)c1nc(-c2ccc(-c3ccc(-c4c[nH]c(C(NC(=O)C5CCCCC5c5ccccc5)C(C)(C)C)n4)cc3)cc2)c[nH]1 (mixture of isomers) [Compound S-269] | >100 |
| CC(C)(C)C(NC(=O)C1C(c2ccccc2)C1c1ccccc1)c1nc(-c2ccc(-c3ccc(-c4c[nH]c(C(NC(=O)C5C(c6ccccc6)C5c5ccccc5)C(C)(C)C)n4)cc3)cc2)c[nH]1 (mixture of isomers) [Compound S-271] | >100 |
| COC(=O)NC1CCCCC1C(=O)NC(c1nc(-c2ccc(-c3ccc(-c4c[nH]c(C(NC(=O)C5CCCCC5NC(=O)OC)C(C)(C)C)n4)cc3)cc2)c[nH]1)C(C)(C)C (mixture of isomers) [Compound S-275] | >100 |
| CC1(C(=O)N[C@H](c2nc(-c3ccc(-c4ccc(-c5c[nH]c([C@@H](NC(=O)C6(C)CC(F)(F)CN6)C(C)(C)C)n5)cc4)cc3)c[nH]2)C(C)(C)C)CC(F)(F)CN1 (mixture of isomers) [Compound W-80] | >100 |
| CC1(C)CCCC(C)(C(=O)NC(c2nc(-c3ccc(-c4ccc(-c5c[nH]c(C(NC(=O)C6(C)CCCC(C)(C)O6)C(C)(C)C)n5)cc4)cc3)c[nH]2)C(C)(C)C)O1 (mixture of isomers) [Compound W-163] | >100 |
| CC(C)(C)C(NC(=O)C1(NC(=O)C2CC2(F)F)CCCCC1)c1nc(-c2ccc(-c3ccc(-c4c[nH]c(C(NC(=O)C5(NC(=O)C6CC6(F)F)CCCCC5)C(C)(C)C)n4)cc3)cc2)c[nH]1 (mixture of isomers) [Compound W-277] | >100 |
| CC(C)(C)C(NC(=O)C1CC12CCC(F)(F)CC2)c1nc(-c2ccc(-c3ccc(-c4c[nH]c(C(NC(=O)C5CC56CCC(F)(F)CC6)C(C)(C)C)n4)cc3)cc2)c[nH]1 (mixture of isomers) [Compound Y-70] | >100 |
| CC1(C(=O)NC(c2nc(-c3ccc(-c4ccc(-c5c[nH]c(C(NC(=O)C6(C)CCCCC6=O)C(C)(C)C)n5)cc4)cc3)c[nH]2)C(C)(C)C)CCCCC1=O (mixture of isomers) [Compound Y-98] | >100 |
| CC1(C(=O)NC(c2nc(-c3ccc(-c4ccc(-c5c[nH]c(C(NC(=O)C6(C)CCCOC6)C(C)(C)C)n5)cc4)cc3)c[nH]2)C(C)(C)C)CCCOC1 (mixture of isomers) [Compound Y-100] | >100 |
| CC(C)(C)C(NC(=O)C1(CO)CCCOC1)c1nc(-c2ccc(-c3ccc(-c4c[nH]c(C(NC(=O)C5(CO)CCCOC5)C(C)(C)C)n4)cc3)cc2)c[nH]1 (mixture of isomers) [Compound Y-101] | >100 |
| CC(C)(C)C(NC(=O)C1(O)CCCOC1)c1nc(-c2ccc(-c3ccc(-c4c[nH]c(C(NC(=O)C5(O)CCCOC5)C(C)(C)C)n4)cc3)cc2)c[nH]1 (mixture of isomers) [Compound Y-102] | >100 |
| CC(C)(C)[C@H](NC(=O)C1CC12CCOCC2)c1ncc(-c2ccc(-c3ccc(-c4cnc([C@@H](NC(=O)C5CC56CCOCC6)C(C)(C)C)[nH]4)cc3)cc2)[nH]1 (single isomer, unassigned) [Compound B70] | >100 |
| CC(C)(C)[C@H](NC(=O)C1CC12CCOCC2)c1ncc(-c2ccc(-c3ccc(-c4cnc([C@@H](NC(=O)C5CC56CCOCC6)C(C)(C)C)[nH]4)cc3)cc2)[nH]1 (single isomer, unassigned) [Compound B71] | >100 |
| CC(C)(C)[C@H](NC(=O)C1CC12CCOCC2)c1ncc(-c2ccc(-c3ccc(-c4cnc([C@@H](NC(=O)C5CC56CCOCC6)C(C)(C)C)[nH]4)cc3)cc2)[nH]1 (single isomer, unassigned) [Compound B72] | >100 |
| CC(O)C1(C(=O)N[C@H](c2ncc(-c3ccc(-c4ccc(-c5cnc([C@@H](NC(=O)C6(C(C)O)CC6)C(C)(C)C)[nH]5)cc4)cc3)[nH]2)C(C)(C)C)CC1 (single isomer, unassigned) [Compound B73] | >100 |
| CC(O)C1(C(=O)N[C@H](c2ncc(-c3ccc(-c4ccc(-c5cnc([C@@H](NC(=O)C6(C(C)O)CC6)C(C)(C)C)[nH]5)cc4)cc3)[nH]2)C(C)(C)C)CC1 (single isomer, unassigned) [Compound B74] | >100 |

— patent US20160158200A1, “Combinations of Hepatitis C Virus Inhibitors” (priority 2013, published 2016)
